The results in this text go back to patent publication US12661353B2, “SPT5 inhibitors and uses thereof” (Yeda Research and Development Co. Ltd., priority 2020, dated 2026).

Test [1] concerns A20 mRNA. Kind of test: Splicing of A20: mature/immature transcripts, RT-qPCR. The class given is cell-based, human. The note with it: following TNFα induction, 50 μM. How it is done:
Bars represent the mean of at least 3±SEM independent experiments. The asterisks denote statistical significance differences relative to DMSO+TNFα control according to Student's t tests (typically one tailed, paired): *p<0.05; **p<0.01; ***p<0.005; ****p<0.001. […] Shown are mRNA levels of A20 (normalized to GAPDH) in Hela cells treated with SPI-21 and TNFα and incubated with actinomycin D for the indicated time points, as determined by real-time qPCR. The data points present the mean of 3±SEM independent experiments. […] Shown are levels of mature and immature transcripts in cells incubated for 1 hour with DMSO (vehicle control) or 50 μM of SPI-21 or SPI-18 followed by treatment with TNFα for an additional one hour, as determined by real-time qPCR using primers spanning exons 3 and 4 (mature, black arrows shown in the scheme of G, SEQ ID NOs: 47 and 48) or intron 1 and exon 2 (immature, red arrows shown in the scheme of G, SEQ ID NOs: 49 and 50). […] DMSO (vehicle control), SPI-21 or SPI-18 treated cells were induced by TNFα for the indicated times and the levels of IκBα and β-Tubulin proteins were analyzed by western blot as indicated. […] The occupancy of the A20 gene was analyzed by qPCR using primers from the first (A, SEQ ID NOs: 55 and 56), third (B, SEQ ID NOs: 57 and 58) and last (C, SEQ ID NOs: 59 and 60) exon-intron junctions. […]

Test [2] concerns the target T1, His-Spt5 (fused to Spt4) (Homo sapiens, UniProt O00267).
T1 construct: His-Rpb1 and His-Spt5 (fused to Spt4 to increase its stability) were each expressed in E. coli; Spt4 (fusion partner); His tag (N); made in house; host or cells: E. coli; purified on nickel agarose beads
Kind of test: Binding assay by intrinsic fluorescence of purified His-Spt5 (fused to Spt4). How it is done:
Binding assay—In order to measure binding of the indicated compound to Spt5 and/or Pol II; Spt5-Spt4 or Rpb1 fused to a histidine (His) tag were expressed in E. coli (SEQ ID Nos: 2-3, 5-6 and 81) and purified on nickel agarose beads as described in Ashkenazi et al. 2016. The proteins were incubated for 10 minutes with increasing concentrations of the indicated compound in a black 384 wells microplate in a total volume of 20 μl. Binding was assessed by measuring the changes in the intrinsic fluorescence (280 nm) using Cytation™ 5 (BioTek).
Two identified compounds, SPI-21 and SPI-18, were further validated for their direct interaction with either Spt5 or Rpb1 CC domain. […] Using the purified proteins, fluorescence intensity measurements were performed in the presence of increasing concentrations of SPI-21 or SPI-18. This method analyzes binding by monitoring the changes in the intrinsic fluorescence of the proteins as a consequence of conformational changes. […]
Direct interaction with either the Spt5 or the Rpb1 CC domain of SPI-21 and SPI-18 was further validated. […] Using the purified proteins, fluorescence intensity measurements were performed in the presence of increasing concentrations of SPI-21 and SPI-18. This method analyzes binding by monitoring the changes in the intrinsic fluorescence of the proteins as a consequence of conformational changes. […]

For the compound `Nc1ccccc1SC(CC(=O)c1cccs1)c1cccs1` (stereo not shown) [SPI-18], the “mature/immature A20 mRNA ratio” value in test [1] was “clear decrease in mature/immature ratio”. This compound also came in with an IC50 in test [2] of 40 µM.
Turning to `COc1ccc(C=CC(=O)c2cc(O)ccc2O)cc1` [SPI-21], in test [1], the “mature/immature A20 mRNA ratio” value was “clear decrease in mature/immature ratio”. For the same compound, the “effect on intrinsic fluorescence of Spt5” value in test [2] is reported as “no significant effect”.
